Entries after “also recorded” stand apart in the source; their conditions may differ. Like-named read-outs stand apart in the source and are kept apart here.
Columns and labels:
[1] = tested on: MCF-7 human cancer cell line; test: In vitro anti-proliferative MTT assay; type: cell-based; details: MTT, MCF-7, 48 h treatment, read-out: Cytotoxicity IC50, SD (±), MCF7
Method: In the present study, all synthesized cyanopyridine hybrids were subjected to in vitro cytotoxicity testing using the MTT assay method against MCF-7 human cancer.
All cell lines were maintained in RPMI1640 medium containing 10% FBS at 37 °C in 5% CO2 humidified incubator. Cell proliferation assay was determined by the MTT (3-[4,5-dimethyl-2-thiazolyl]-2,5- diphenyl-2H-tetrazolium bromide) method. Briefly, cells were plated in triplicate wells (3–5 × 10^4 cells/well) of 96-well flat-bottomed plates and incubated overnight prior to drug exposure and then treated with different concentrations of the tested compounds for 48 h. After that, 20 μL of MTT reagent at a final concentration of 0.5 mg/mL was added to each well. Cells were then incubated for 2 h with MTT, after which 100 μL of DMSO solution was added to dissolve the formazan salt resulting from the reduction of MTT and the absorbance was read at 570 nm using an automatic plate reader. The IC50 values were calculated according to inhibition ratios from three independent experiments.

[2] = molecular target: T1, PIM-1 kinase (Homo sapiens, UniProt P11309); test: PIM-1 kinase inhibition assay (Promega PIM-1 kinase assay kit, ADP-Glo); type: biochemical; details: concentrations 10, 1, 0.1 and 0.01 µM, read-out: PIM1-Kinase IC50
T1 construct: purchased Promega V4032

[3] = tested on: MCF-7 cells; test: Flow cytometric cell cycle analysis; type: cell-based, human; details: for Cell cycle comment (phase of arrest): MCF-7, 24 h
Method: The cell cycle encompasses four distinct phases: G1 phase, S phase (synthesis), G2 phase, and M phase. During G1, cellular amplification and preparation for DNA replication take place. The S phase involves DNA replication and chromatid duplication. In the G2 phase, DNA repair and further growth occur. The M phase is characterized by nuclear division. The investigation of the impact of compound 7h on cell cycle progression and the induction of apoptosis in MCF-7 cells. […] Subsequently, the cells were stained with PI/Annexin V and analyzed using flow cytometry (BD FASCCalibur). Upon analyzing the results (Table 3, Fig. 6), it was evident that the percentage of cell accumulation in the S phase increased in MCF-7 cells treated with compound 7h after 24 h of incubation.
Cell cycle analysis MCF-7 cell was seeded into six-well plates at a density of 2 × 10^5 cell per well and incubated for 24 h. The cell was cultured in RPMI 1640 supplemented with fetal bovine serum (FBS, 10%) and incubated at 37 °C and 5% CO2. The medium was removed and replaced with medium (final DMSO concentration, 1% v/v) containing compound 7h (0.283 µM). After incubation for 24 h and 48 h, the cell layer was trypsinized and washed with cold phosphate buffered saline (PBS) and fixed with 70% ethanol. The fixed cells were rinsed with PBS and then stained with the DNA fluorochrome PI in a solution containing Triton X-100 as well as RNase, keep 15 min at 37 °C according to the instruction manual. Then the samples were analyzed with a FACS Caliber flow cytometer (Becton Dickinson & Co., Franklin Lakes, NJ). The number of cells analyzed for each sample was 10,000 [39].

[4] = tested on: MCF-7 cells; test: Apoptosis assay, Annexin V/PI flow cytometry; type: cell-based, human; details: MCF-7, 24 h
Method: Compound 7h was chosen to investigate its abilities in inducing cancer cell apoptosis. Cell cycle analysis of MCF-7 after treatment with compound 7h. To corroborate the ability of the compound to induce apoptosis, cells were stained with Annexin V/PI, incubated for 24 h, and analyzed.
The MCF-7 was treated with compound 7h for 24 h. After treatment, the cells were suspended in 0.5 mL of PBS, collected by centrifugation, and fixed in ice-cold 70% (v/ v) ethanol, centrifuged the ethanol-suspended cells for 5 min, suspended in 5 mL PBS and centrifuged for 5 min, re-suspended with 1 mL PI staining solution (0.1 mg/ml RNase) + PE Annexin V (component no. 51-65875X) and kept in dark at 37 °C for 10 min, finally analyzed by flow cytometry using FACS caliber (Becton Dickinson). The cell cycle distributions were calculated using Phoenix Flow Systems and Verity Software House.

T1 sequence (P11309 whole entry): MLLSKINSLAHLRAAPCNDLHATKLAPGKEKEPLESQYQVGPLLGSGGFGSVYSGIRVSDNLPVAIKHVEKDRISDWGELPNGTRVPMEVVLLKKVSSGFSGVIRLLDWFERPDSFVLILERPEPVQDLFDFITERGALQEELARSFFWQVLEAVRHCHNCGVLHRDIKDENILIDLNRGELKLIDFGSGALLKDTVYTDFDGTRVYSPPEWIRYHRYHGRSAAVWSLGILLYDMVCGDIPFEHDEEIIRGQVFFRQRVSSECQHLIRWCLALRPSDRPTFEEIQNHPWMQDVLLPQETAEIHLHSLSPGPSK

COc1cc(-c2cc(-c3cccnc3)[nH]c(=O)c2C#N)ccc1OCC(=O)Nc1ccccc1 [7h, 2-(4-(3-Cyano-2-oxo-6-(pyridin-3-yl)-1,2-dihydropyridin-4-yl)-2-methoxyphenoxy)-N-phenylacetamide]
IC50 ([1]; Homo sapiens, MCF7, 48 h): 1890 nM
IC50 [1]: 1890 ± 80 nM
IC50 [2]: 281 ± 12 nM
Cell cycle comment (phase of arrest) [3]: arrested the tumor cells at the S phase; also recorded: cell cycle arrest at the S phase
Cell cycle comment (phase of arrest) ([3]; listed as 7 h): Cell growth arrest@ S
DNA content %G2/M ([3]; MCF-7, IC50 concentration of 7h, 24 h, control 13.14): 12.11%
DNA content %S ([3]; MCF-7, IC50 concentration of 7h, 24 h, control 25.83): 33.61%
DNA content %G0-G1 ([3]; MCF-7, IC50 concentration of 7h, 24 h, control 61.03): 54.28%
Apoptosis Late ([4]; control 0.27): 22.81%
Apoptosis Early ([4]; control 0.41): 15.42%
Necrosis ([4]; control 1.61): 3.95%
Apoptosis Total ([4]; control 2.29): 42.18%
melting point: 295 to 297 °C
